Assay results reported in patent US6548476B1, “Dimeric inhibitors of influenza neuraminidase” (priority 1999, dated 2003).
In brackets after ≈: the same amount, converted by molar mass. Like-named read-outs stand apart in the source and are kept apart here.

Assays:
MDCK cells [1] = experiment: Minimum cytotoxic drug concentration in the MDCK cell replication assay
influenza A virus = experiment: Inhibition of influenza A virus replication (cytopathic effect) in MDCK cells; details: for ID50: MDCK cells, influenza A virus
MDCK cells [2] = details: dog
[3] = tested on: influenza A/Victoria/3/75 B010; experiment: Inhibition of influenza A/Victoria/3/75 B010 replication, standard CPE type assay; format: cell-based; details: for EC50: three separate experiments (test 1-3)
[4] = Cytotoxicity (CC50) in the CPE type assay of Example 7; format: cell-based; details: CPE assay of Example 7; three separate experiments (test 1-3)

SMILES | MTC (MDCK cells [1]) | ID50 (μg of (A)) (influenza A virus) | ID50 (influenza A virus) | MTC (MDCK cells [2]) | EC90 ([3]; test 1) | EC50 [3] | CC50 [4] | EC50 ([3]; Influenza A virus, read-out: EC50)
CC(=O)N[C@H]1[C@H]([C@H](OC(=O)NCCCCCCNC(=O)NCCCCNC(=O)NCCCCCCNC(=O)O[C@@H]([C@@H]2OC(C(=O)O)=C[C@H](NC(=N)N)[C@H]2NC(C)=O)[C@H](O)CO)[C@H](O)CO)OC(C(=O)O)=C[C@@H]1NC(=N)N [(2)] | >10 µg/mL | 0.013 μg of (A) | 0.007 mg/L (≈ 0.00643 µM) |  |  |  |  | 
CC(=O)N[C@H]1[C@H]([C@H](OC(=O)NCCCCCCNC(=O)NCCCCCCCCCCCCNC(=O)NCCCCCCNC(=O)O[C@@H]([C@@H]2OC(C(=O)O)=C[C@H](NC(=N)N)[C@H]2NC(C)=O)[C@H](O)CO)[C@H](O)CO)OC(C(=O)O)=C[C@@H]1NC(=N)N [(3), Bis-[7-(6′-hexyleneureodo)-carbamoyloxy-5-acetamido-4-guanidino-2,3,4,5-tetradeoxy-D-glycero-D-galacto-non-2-enopyranosonic acid]] | >10 µg/mL | 0.028 μg of (A) | 0.017 mg/L (≈ 0.0142 µM) |  |  |  |  | 
CC(=O)N[C@H]1[C@H]([C@H](OC(=O)NCCCCCCNC(=O)CNC(=O)CNC(=O)CNC(=O)NCCCCCCNC(=O)NCC(=O)NCC(=O)NCC(=O)NCCCCCCNC(=O)O[C@@H]([C@@H]2OC(C(=O)O)=C[C@H](NC(=N)N)[C@H]2NC(C)=O)[C@H](O)CO)[C@H](O)CO)OC(C(=O)O)=C[C@@H]1NC(=N)N [(4)] | >10 µg/mL | 0.11 μg of (A) | 0.084 mg/L (≈ 0.0576 µM) |  |  |  |  | 
CC(=O)N[C@H]1[C@H]([C@H](OC(=O)NCCCCCCNC(=O)CCCCCNC(=O)CCCCCNC(=O)NCCCCCCCCCCCCNC(=O)NCCCCCC(=O)NCCCCCC(=O)NCCCCCCNC(=O)O[C@@H]([C@@H]2OC(C(=O)O)=C[C@H](NC(=N)N)[C@H]2NC(C)=O)[C@H](O)CO)[C@H](O)CO)OC(C(=O)O)=C[C@@H]1NC(=N)N [(5)] | >10 µg/mL | 0.42 μg of (A) | 0.35 mg/L (≈ 0.212 µM) |  |  |  |  | 
CC(=O)N[C@H]1[C@H]([C@H](OC(=O)NCCCCCCNC(=O)CCCCCNC(=O)CCCCCNC(=O)CCCCCNC(=O)CCCCCNC(=O)NCCCCCCNC(=O)NCCCCCC(=O)NCCCCCC(=O)NCCCCCC(=O)NCCCCCC(=O)NCCCCCCNC(=O)O[C@@H]([C@@H]2OC(C(=O)O)=C[C@H](NC(=N)N)[C@H]2NC(C)=O)[C@H](O)CO)[C@H](O)CO)OC(C(=O)O)=C[C@@H]1NC(=N)N [(6)] | >10 µg/mL | 0.62 μg of (A) | 0.63 mg/L (≈ 0.311 µM) |  |  |  |  | 
CC(=O)N[C@H]1[C@H]([C@H](OC(=O)NCCCCCCN)[C@H](O)CO)OC(C(=O)O)=C[C@@H]1NC(=N)N [(7), 5-acetamido-7-(6′-aminohexyl)-carbamoyloxy-4-guanidino-2,3,4,5-tetradeoxy-D-glycero-D-galacto-non-2-enopyranosonic acid, reference compound] |  | 0.32 μg of (A) | 0.22 mg/L (≈ 0.464 µM) | >10 µg/mL |  |  |  | 
CC(=O)N[C@H]1[C@H]([C@H](OC(=O)NCCCCCCNC(=O)CN(CCN(CC(=O)O)CC(=O)NCCCCCCNC(=O)O[C@@H]([C@@H]2OC(C(=O)O)=C[C@H](NC(=N)N)[C@H]2NC(C)=O)[C@H](O)CO)CC(=O)O)[C@H](O)CO)OC(C(=O)O)=C[C@@H]1NC(=N)N [Compound 8, Bis-[7-(6′-methyleneamine-N-acetic acid-N-acetamido-hexyl)-carbamoyloxy-5-acetamido-4-guanidino-2,3,4,5-tetradeoxy-D-glycero-D-galacto-non-2-enopyranosonic acid]] |  |  |  |  | 0.0671 mg/L (≈ 0.0557 µM) | 0.00971 mg/L (≈ 0.00806 µM) | >0.1 mg/L | 
CC(=O)N[C@H]1[C@H]([C@H](O)[C@H](O)CO)OC(C(=O)O)=C[C@@H]1NC(=N)N [Compound (A), 4-guanidino-2-deoxy-2,3-dehydro-N-acetylneuraminic acid, reference compound] | >10 µg/mL | 0.028 μg of (A) | 0.0095 mg/L (≈ 0.0286 µM) |  |  |  |  | 0.009 mg/L (≈ 0.0271 µM)
